Experimental data from patent US20230323466A1, “DETERMINING CANCER RESPONSIVENESS TO TREATMENT” (Queensland University of Technology, priority 2020, published 2023).

Key:
NSCLC cells [1] = assay: Cell death with cisplatin and/or BI 2536 in control versus CDCA3 depleted NSCLC cells (FIG. 9B); format: cell-based; conditions: monotherapy
[2] = system: control and CDCA3-depleted cells; assay: Mitotic entry and recovery from cisplatin-induced G2 checkpoint, flow cytometry of Ser-10 phosphorylated histone H3 (FIG. 2C); format: cell-based; conditions: after cisplatin-induced G2 checkpoint; both control and CDCA3-depleted cells
From the text: FIG. 2. (A) Undamaged cells depleted of CDCA3 progress to mitosis slower than control cells or cells complemented with siRNA resistant CDCA3. (B) Cisplatin treated cells and depleted of CDCA3 are unable to recover from cell cycle arrest. (C) Cells treated with Cisplatin and then a PLK1 inhibitor are unable to recover from cell cycle arrest.
As this protein is reported to regulate cell proliferation (as confirmed by data in FIG. 7), the present inventors investigated its potential role in cell cycle progression from G2 into mitosis. To examine cell cycle progression, control cells, CDCA3-depleted cells or depleted cells ectopically expressing siRNA resistant CDCA3-FLAG were synchronized at the G1/S cell cycle boundary by a double thymidine block and released for seven hours (˜G2 phase). At this time cells were treated with or without cisplatin for 3.5 h and released into nocodazole containing media to capture cells in mitosis. Mitotic cells were determined by flow cytometry analysis of cells stained for Ser-10 phosphorylated histone H3. In undamaged cells, CDCA3 depletion slowed the progression of cells from G2 into mitosis (FIG. 2A). However, in cisplatin treated cells, CDCA3 depletion abolished mitotic progression with an inability to recover from G2 cell cycle arrest (FIG. 2B). […]

PLK1 = assay: Mitotic index (H3S10ph) in cells expressing wildtype or T210D PLK1 (FIG. 4D); format: cell-based; conditions: dose dependent
CDCA3 and PLK1 = assay: Immunoprecipitation of CDCA3 with PBD of PLK1 under CDK1 inhibition (FIG. 5E); format: cell-based; conditions: inhibition of CDK1 to block CDCA3 phosphorylation
From the text: FIG. 5. (A) PLK1 schematic listing kinase domain and polo-box domain (PBD). (B) CDCA3 immunoprecipitates with the PBD of PLK1 irrespective of the phospho-binding mutant (H538 and K540 each mutated to alanine residues). (C) CDCA3 is phosphorylated by CDK1-cyclin B1 causing a large molecular weight shift measured by SDS-PAGE. (D) Mutating each of the five CDK1-cyclin B1 phosphorylation sites within CDCA3 enhances binding to PLK1. (E) Inhibition of CDK1 with RO3306 enhances immunoprecipitation of CDCA3 with the PBD domain of PLK1. (F) Unmodified recombinant CDCA3 binds to recombinant Aurora A and PLK1. CDCA3 pre-phosphorylated by CDK1-cyclin B1 binds markedly less to PLK1 than unmodified CDCA3. (G) Recombinant unmodified CDCA3 but not phosphorylated CDCA3 enhances the in vitro activation and phosphorylation of PLK1 by Aurora A.
The present inventors next examined the mechanism regulating the association between CDCA3 and PLK1. The structure of PLK1 consists of an N-terminal kinase domain and a […] polo-box domain (PBD; FIG. 5A). Classically, the PBD binds phosphorylated substrates requiring the residues His538 and Lys540. Using immunoprecipitation analysis of lysates from cells ectopically expressing CDCA3 and the PBD of PLK1, it was identified that CDCA3 associates with the PLK1 PBD independent of residues His538 and Lys540 (FIG. 5B). […]

NSCLC cells [3] = assay: Cisplatin IC50 in CDCA3-depleted versus control NSCLC cells (FIG. 8); format: cell-based
From the text: FIG. 8. CDCA3-depletion reduces cisplatin IC50 values ˜2-4 fold versus control NSCLC cells but not non-tumorigenic lung epithelial HBEC cells, indicating increased sensitivity to cisplatin in NSCLC in vitro.
To investigate the diagnostic potential for CDCA3, the present inventors stratified the UT Lung SPORE cohort data based on CDCA3 expression (CDCA3low=below median, CDCA3high=above median). In this trial, patients undergoing curative resection were either observed only (OBS) or received adjunct chemotherapy (ACT).

H1650 cells = assay: Cell viability assay (CellTitre-Glo 2.0), H1650; format: cell-based; conditions: relative to other cell lines
Procedure: (§1) All NSCLC cell lines were obtained from the American Type Culture Collection (ATCC) except for PC-9 cell line which was sourced from the European Collection of Cell Cultures (ECACC). Cells were grown in RPMI-1640-medium containing L-glutamine (Life Technologies) and 10% foetal bovine serum (FBS, Sigma Aldrich). […] All cell lines were cultured at 37° C. in a humidified 5% CO2 incubator and routinely tested for mycoplasma contamination. Transfection of CDCA3-FLAG expression construct was performed using the FuGene HD transfection reagent (Promega Corporation).
(§2) Cells were seeded into a white-walled, glass-bottomed 384-well plate (Nunc) at a density of 1x10^3 cells per well. […] Cell viability was determined using CellTitre-Glo 2.0 (Promega Corporation) according to the manufacturer's instructions. Luminescence was scanned and analysed on the FLUOstar Omega Microplate Reader (BMG Labtech). Data was normalised to untreated controls and dose response curves and drug potency values generated using GraphPad Prism V9 software.
(§3) The present inventors evaluated TCGA datasets and correlated relative CDCA3 expression against available WikiPathways (2) of known measures of TKI resistance. […] Relative CDCA3 protein levels were correlated with the TKI potency values.

PC-9 cells = format: cell-based; conditions: for effect of ectopic CDCA3 expression on sensitivity: PC-9 parental cells; for enhancement of potency by ectopic CDCA3 expression: PC-9 resistant cells
Procedure: as §1, §2
(§4) The present inventors next sought to assess this possibility in in vitro models of acquired TKI resistance. […] Cells not exposed to TKI were also maintained in culture for the same period, hereafter referred to as the parental cells.

H1975 cells = assay: Cell viability assay (CellTitre-Glo 2.0), H1975; format: cell-based; conditions: Homo sapiens, NCI-H1975, 72 h
Procedure: as §1, §2, §3

HCC827 cells = system: HCC827 cells
Procedure: as §1, §2, §4

CDCA3 = CDCA3 levels after TKI treatment of EGFR mut NSCLC cell lines (FIG. 12); format: cell-based; conditions: H1975 cells (L858R, T790M)
Procedure: Given CDCA3 levels are responsive to EGFR activation, the present inventors examined CDCA3 levels following second and third generation TKI treatment of three EGFR^mut cell lines; HCC827 and H1650 (exon 19 deletion E746-A750) and H1975 cells (L858R, T790M-resistant to first and second generation TKI).
To collect whole cell lysates, cells were first washed in PBS then lysed in lysis buffer (50 mM HEPES (pH 7.5), 150 mM KCl, 5 mM EDTA, 0.05% IGEPAL CA-630 (v/v), 1× protease inhibitor cocktail (Roche), and 1× phosphatase inhibitor cocktail (Cell Signalling Technology). Total protein was determined by bicinchoninic acid (BCA) protein assay (Sigma Aldrich) following lysate sonication and centrifugation. Samples (total protein 20 20 μg) were denatured in 1× Laemmli Buffer supplemented with 8% β-mercaptoethanol for 5 minutes at 80° C.
The samples were separated on Bolt 4-12% Bis-Tris Plus pre-cast gels (Invitrogen) and transferred onto nitrocellulose membrane (GE Healthcare Life Sciences) using the semi-dry Novex XCell II Blot Module transfer system (Life Technologies). The nitrocellulose membranes were blocked using Odyssey blocking buffer (Li-Cor) before incubation overnight at 4° C. with primary antibody in a 1:1 solution of PBS-T and Odyssey Blocking Buffer. Following primary antibody incubation, membranes were washed with PBS-T and incubated with the appropriate secondary antibodies. […]

CC[C@@H]1C(=O)N(C)c2cnc(Nc3ccc(C(=O)NC4CCN(C)CC4)cc3OC)nc2N1C1CCCC1 [BI 2536]
cell death (NSCLC cells [1]; CDCA3 depleted cells): ~13% | cell death (NSCLC cells [1]; control cells): ~30% | mitotic entry [2]: blocked mitotic entry | mitotic entry (mitotic index) (PLK1): reduced

O=C1NC(=NCc2cccs2)S/C1=C\c1ccc2ncccc2c1 [R03306]
association between CDCA3 and PLK1 (CDCA3 and PLK1): increase

N.N.[Cl][Pt][Cl] [cisplatin]
reduction of cisplatin IC50 values by CDCA3-depletion (NSCLC cells [3]): 2-4 fold

C#Cc1cccc(Nc2ncnc3cc(OCCOC)c(OCCOC)cc23)c1 [erlotinib]
sensitivity (H1650 cells): insensitive | effect of ectopic CDCA3 expression on sensitivity (PC-9 cells): did not impact | enhancement of potency by ectopic CDCA3 expression (PC-9 cells): ~57 fold | IC50 (H1975 cells): 66.6 µM | effect of ectopic CDCA3 expression on sensitivity (HCC827 cells): did not impact

C=CC(=O)Nc1cc(Nc2nccc(-c3cn(C)c4ccccc34)n2)c(OC)cc1N(C)CCN(C)C [osimertinib]
effect of ectopic CDCA3 expression on sensitivity (PC-9 cells): did not impact | enhancement of potency by ectopic CDCA3 expression (PC-9 cells): 54 fold | increase in IC50 values versus parental (PC-9 cells; erlotinib resistant PC-9 versus parental PC-9): ~1,470 fold | effect of ectopic CDCA3 expression on sensitivity (HCC827 cells): did not impact | enhancement of potency by ectopic CDCA3 expression (HCC827 cells): ~121 fold | increase in IC50 values versus parental (HCC827 cells): ~385 fold | CDCA3 levels (CDCA3): reduced
